Laboratory results taken from ChEMBL document CHEMBL1201862, “PubChem BioAssay data set” (2004).
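Following 48 hours of exposure in 96-well plates, responses at five concentrations were used to interpolate endpoints linearly. At the GI50, growth is halved.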 Active and inactive are the calls of the source. Rule as the data show it: active = GI50 up to about 1.1 µM and inactive = higher.

How the values were obtained:
Experiment in all cases: NCI tumour cell line growth inhibition, 48 h
LOX IMVI = system: LOX IMVI
MOLT-4 = system: MOLT-4
EKVX = system: EKVX
MDA-N = system: MDA-N
SK-OV-3 = system: SK-OV-3
786-0 = system: 786-0
HL-60 = system: HL-60
ACHN = system: ACHN
HOP-62 = system: HOP-62
KM12 = system: KM12
SK-MEL-5 = system: SK-MEL-5
CAKI-1 = system: CAKI-1
UO-31 = system: UO-31
IGROV-1 = system: IGROV-1
SF-539 = system: SF-539
Malme-3M = system: Malme-3M
DU-145 = system: DU-145
OVCAR-3 = system: OVCAR-3
PC-3 = system: PC-3
UACC-257 = system: UACC-257

For Cc1cn(C2CC(O)C(COC(N)=O)O2)c(=O)[nH]c1=O (stereo not given), the GI50 (LOX IMVI) was > 100 µM (inactive), the GI50 (MOLT-4) was > 100 µM (inactive) and the GI50 (EKVX) was > 100 µM (inactive). For the same compound, the GI50 (MDA-N) was > 100 µM (inactive), the GI50 (SK-OV-3) was > 100 µM (inactive) and the GI50 (786-0) was > 100 µM (inactive). The GI50 (HL-60) was > 100 µM (inactive), the GI50 (ACHN) was > 100 µM (inactive) and the GI50 (HOP-62) was > 100 µM (inactive). The GI50 (KM12) was > 100 µM (inactive), the GI50 (SK-MEL-5) was > 100 µM (inactive) and the GI50 (CAKI-1) was > 100 µM (inactive). The GI50 (UO-31) was > 100 µM (inactive), the GI50 (IGROV-1) was > 100 µM (inactive) and the GI50 (SF-539) was > 100 µM (inactive). The GI50 (Malme-3M) was > 100 µM (inactive), the GI50 (DU-145) was > 100 µM (inactive) and the GI50 (OVCAR-3) was > 100 µM (inactive). The GI50 (PC-3) was > 100 µM (inactive) and the GI50 (UACC-257) was > 100 µM (inactive).
In the case of O=C1c2ccccc2C(=O)c2c1ccc1conc21, the GI50 (LOX IMVI) is reported as 0.469 µM (active), the GI50 (MOLT-4) is reported as 0.632 µM (active) and the GI50 (EKVX) is reported as 2.08 µM (inactive). For the same compound, the GI50 (MDA-N) was 0.392 µM (active), the GI50 (SK-OV-3) was 6.46 µM (inactive) and the GI50 (786-0) was 2.75 µM (inactive). The GI50 (HL-60) was 0.402 µM (active), the GI50 (ACHN) was 1.94 µM (inactive) and the GI50 (HOP-62) was 4.3 µM (inactive). For the same compound, the GI50 (KM12) was 3.24 µM (inactive), the GI50 (SK-MEL-5) was 1.92 µM (inactive) and the GI50 (CAKI-1) was 4.22 µM (inactive). The GI50 (UO-31) was 4.33 µM (inactive), the GI50 (IGROV-1) was 2.98 µM (inactive) and the GI50 (SF-539) was 1.95 µM (inactive). The GI50 (Malme-3M) was 2.48 µM (inactive), the GI50 (DU-145) was 2.59 µM (inactive) and the GI50 (OVCAR-3) was 0.296 µM (active). The GI50 (PC-3) was 1.48 µM (inactive) and the GI50 (UACC-257) was 1.98 µM (inactive).
With CCCCCOC(=O)C(=O)Nc1[nH]nnc1C(N)=O the GI50 (LOX IMVI) was > 100 µM (inactive), the GI50 (MOLT-4) was > 100 µM (inactive) and the GI50 (EKVX) was > 100 µM (inactive). The GI50 (MDA-N) was > 100 µM (inactive), the GI50 (SK-OV-3) was > 100 µM (inactive) and the GI50 (786-0) was > 100 µM (inactive). The GI50 (HL-60) was > 100 µM (inactive), the GI50 (ACHN) was > 100 µM (inactive) and the GI50 (HOP-62) was > 100 µM (inactive). For the same compound, the GI50 (KM12) was > 100 µM (inactive), the GI50 (SK-MEL-5) was > 100 µM (inactive) and the GI50 (CAKI-1) was > 100 µM (inactive). For the same compound, the GI50 (UO-31) was > 100 µM (inactive), the GI50 (IGROV-1) was > 100 µM (inactive) and the GI50 (SF-539) was > 100 µM (inactive). The GI50 (Malme-3M) was > 100 µM (inactive), the GI50 (DU-145) was > 100 µM (inactive) and the GI50 (OVCAR-3) was > 100 µM (inactive). The GI50 (PC-3) was > 100 µM (inactive) and the GI50 (UACC-257) was > 100 µM (inactive).
For CC1(C)OC2COC(c3n[nH]c4c(=O)[nH]c(=O)[nH]c34)C2O1 (stereo not given), the GI50 (LOX IMVI) was > 100 µM (inactive), the GI50 (MOLT-4) was > 100 µM (inactive) and the GI50 (EKVX) was > 100 µM (inactive). For the same compound, the GI50 (MDA-N) was > 100 µM (inactive), the GI50 (SK-OV-3) was > 100 µM (inactive) and the GI50 (786-0) was > 100 µM (inactive). The GI50 (HL-60) was > 100 µM (inactive), the GI50 (ACHN) was > 100 µM (inactive) and the GI50 (HOP-62) was > 100 µM (inactive). For the same compound, the GI50 (KM12) was > 100 µM (inactive), the GI50 (SK-MEL-5) was > 100 µM (inactive) and the GI50 (CAKI-1) was > 100 µM (inactive). For the same compound, the GI50 (UO-31) was > 100 µM (inactive), the GI50 (IGROV-1) was > 100 µM (inactive) and the GI50 (SF-539) was > 100 µM (inactive). The GI50 (Malme-3M) was > 100 µM (inactive), the GI50 (DU-145) was > 100 µM (inactive) and the GI50 (OVCAR-3) was > 100 µM (inactive). The GI50 (PC-3) was > 100 µM (inactive) and the GI50 (UACC-257) was > 100 µM (inactive).
COC(=O)c1cc2c3c(c(C(C)=O)c(OC)c2[nH]1)NCC3 was tested, and the GI50 (LOX IMVI) was > 50 µM (inactive), the GI50 (MOLT-4) was > 50 µM (inactive) and the GI50 (EKVX) was > 50 µM (inactive). For the same compound, the GI50 (MDA-N) was > 50 µM (inactive), the GI50 (SK-OV-3) was > 50 µM (inactive) and the GI50 (786-0) was > 50 µM (inactive). For the same compound, the GI50 (HL-60) was > 50 µM (inactive), the GI50 (ACHN) was > 50 µM (inactive) and the GI50 (HOP-62) was > 50 µM (inactive). The GI50 (KM12) was > 50 µM (inactive), the GI50 (SK-MEL-5) was > 50 µM (inactive) and the GI50 (CAKI-1) was > 50 µM (inactive). For the same compound, the GI50 (UO-31) was > 50 µM (inactive), the GI50 (IGROV-1) was > 50 µM (inactive) and the GI50 (SF-539) was > 50 µM (inactive). For the same compound, the GI50 (Malme-3M) was > 50 µM (inactive), the GI50 (DU-145) was > 50 µM (inactive) and the GI50 (OVCAR-3) was > 50 µM (inactive). The GI50 (PC-3) was > 50 µM (inactive) and the GI50 (UACC-257) was > 50 µM (inactive).
In the case of CC(=O)O[C@H]1CC[C@@]2(C)C(=CC[C@H]3[C@@H]4C[C@H](N5CCN(C)CC5)[C@H](OC(C)=O)[C@@]4(C)CC[C@@H]32)C1, the GI50 (LOX IMVI) is reported as 3.03 µM (inactive), the GI50 (MOLT-4) is reported as 4.39 µM (inactive) and the GI50 (EKVX) is reported as 20.7 µM (inactive). The GI50 (MDA-N) was 12.1 µM (inactive), the GI50 (SK-OV-3) was > 47.2 µM (inactive) and the GI50 (786-0) was 19.2 µM (inactive). The GI50 (HL-60) was 2.44 µM (inactive), the GI50 (ACHN) was 41.9 µM (inactive) and the GI50 (HOP-62) was 25.1 µM (inactive). For the same compound, the GI50 (KM12) was 16.7 µM (inactive), the GI50 (SK-MEL-5) was 3.53 µM (inactive) and the GI50 (CAKI-1) was 33.3 µM (inactive). For the same compound, the GI50 (UO-31) was > 53 µM (inactive), the GI50 (IGROV-1) was 19 µM (inactive) and the GI50 (SF-539) was 4.26 µM (inactive). The GI50 (Malme-3M) was 11.7 µM (inactive), the GI50 (DU-145) was > 100 µM (inactive) and the GI50 (OVCAR-3) was 8.47 µM (inactive). The GI50 (PC-3) was 16.8 µM (inactive) and the GI50 (UACC-257) was 6.17 µM (inactive).
